Test system: MV-4-11 cells
Assay: Gene expression microarray analysis (Affymetrix PrimeView) and GSEA
Assay type: cell-based, human
Design: RFU PODN (11730768_x_at) / Fold change /veh PODN (11730768_x_at) / RFU LINC00158 (11744669_a_at) / Fold change /veh LINC00158 (11744669_a_at) / RFU DUSP10 (11751237_a_at) / Fold change /veh DUSP10 (11751237_a_at) / RFU ID3 (11757404_x_at) / Fold change /veh ID3 (11757404_x_at) / RFU PLEKHG5 (11737974_s_at) / Fold change /veh PLEKHG5 (11737974_s_at) / RFU LRRC4B (11730491_at) / Fold change /veh LRRC4B (11730491_at) / RFU GIMAP4 (11747438_a_at) / Fold change /veh GIMAP4 (11747438_a_at) / RFU KRT8 (11758183_x_at) / Fold change /veh KRT8 (11758183_x_at) / RFU CNN1 (11734310_a_at) / Fold change /veh CNN1 (11734310_a_at) / RFU VPS37D (11726825_at) / Fold change /veh VPS37D (11726825_at) / RFU C10orf10 (11716522_x_at) / Fold change /veh C10orf10 (11716522_x_at) / RFU KIR2DL2 /// KIR2DL4 /// KIR2DL5A /// KIR2DL5B /// KIR2DS1 /// KIR2DS2 /// KIR2DS3 /// KIR2DS4 /// KIR3DL3 /// KIR3DL3 /// KIR3DS1 (11738374_at) / Fold change /veh KIR2DL2 /// KIR2DL4 /// KIR2DL5A /// KIR2DL5B /// KIR2DS1 /// KIR2DS2 /// KIR2DS3 /// KIR2DS4 /// KIR3DL3 /// KIR3DL3 /// KIR3DS1 (11738374_at) / RFU C1QL1 (11718748_at) / Fold change /veh C1QL1 (11718748_at) / RFU TMPRSS4 (11747572_a_at) / Fold change /veh TMPRSS4 (11747572_a_at) / RFU HAMP (11756126_x_at) / Fold change /veh HAMP (11756126_x_at) / RFU RNFT2 (11725882_a_at) / Fold change /veh RNFT2 (11725882_a_at) / RFU NR4A2 (11747474_a_at) / Fold change /veh NR4A2 (11747474_a_at) / RFU ABCC12 (11746883_a_at) / Fold change /veh ABCC12 (11746883_a_at) / RFU TMEM136 (11760407_x_at) / Fold change /veh TMEM136 (11760407_x_at) / RFU CLDN22 /// WWC2 (11732394_at) / Fold change /veh CLDN22 /// WWC2 (11732394_at) / RFU HLA-DPB1 (11760878_x_at) / Fold change /veh HLA-DPB1 (11760878_x_at) / RFU SPINT1 (11716480_a_at) / Fold change /veh SPINT1 (11716480_a_at) / RFU GAP43 (11754022_s_at) / Fold change /veh GAP43 (11754022_s_at) / RFU A4GNT (11735810_at) / Fold change /veh A4GNT (11735810_at) / RFU PRB3 (11715151_x_at) / Fold change /veh PRB3 (11715151_x_at) / RFU TUBB4B (11761932_at) / Fold change /veh TUBB4B (11761932_at) / RFU CAPN14 (11732068_a_at) / Fold change /veh CAPN14 (11732068_a_at) / RFU TMCC2 (11721928_a_at) / Fold change /veh TMCC2 (11721928_a_at) / RFU IRGQ (11745062_a_at) / Fold change /veh IRGQ (11745062_a_at) / RFU FAM174B (11720279_a_at) / Fold change /veh FAM174B (11720279_a_at) / RFU TMPRSS4 (11748680_a_at) / Fold change /veh TMPRSS4 (11748680_a_at) / RFU FAM212B (11763350_a_at) / Fold change /veh FAM212B (11763350_a_at) / RFU PLEKHG5 (11743358_a_at) / Fold change /veh PLEKHG5 (11743358_a_at) / RFU ZSCAN30 (11745921_a_at) / Fold change /veh ZSCAN30 (11745921_a_at) / RFU CMKLR1 (11741424_a_at) / Fold change /veh CMKLR1 (11741424_a_at) / RFU LOC101060620 /// MAPK8IP1 (11723275_at) / Fold change /veh LOC101060620 /// MAPK8IP1 (11723275_at) / RFU SPTSSB (11747773_x_at) / Fold change /veh SPTSSB (11747773_x_at) / RFU PRSS12 (11739890_at) / Fold change /veh PRSS12 (11739890_at) / RFU BIN1 (11741810_x_at) / Fold change /veh BIN1 (11741810_x_at) / RFU WNT11 (11732464_a_at) / Fold change /veh WNT11 (11732464_a_at) / RFU C10orf10 (11716521_a_at) / Fold change /veh C10orf10 (11716521_a_at) / RFU C5orf56 (11738089_at) / Fold change /veh C5orf56 (11738089_at) / RFU CYB561 (11721691_x_at) / Fold change /veh CYB561 (11721691_x_at) / RFU ANKRD19P (11752326_a_at) / Fold change /veh ANKRD19P (11752326_a_at) / RFU OR2T12 /// OR2T33 /// OR2T8 (11738714_s_at) / Fold change /veh OR2T12 /// OR2T33 /// OR2T8 (11738714_s_at) / RFU VCAN (11748164_a_at) / Fold change /veh VCAN (11748164_a_at) / RFU JSRP1 (11732532_at) / Fold change /veh JSRP1 (11732532_at) / RFU KRTAP10-11 (11738290_x_at) / Fold change /veh KRTAP10-11 (11738290_x_at) / RFU MYO3A (11730013_a_at) / Fold change /veh MYO3A (11730013_a_at) / RFU EBF3 (11725865_a_at) / Fold change /veh EBF3 (11725865_a_at) / RFU CAMK2N1 (11719241_x_at) / Fold change /veh CAMK2N1 (11719241_x_at) / RFU C5orf56 (11738088_a_at) / Fold change /veh C5orf56 (11738088_a_at) / RFU OLFML3 (11715873_a_at) / Fold change /veh OLFML3 (11715873_a_at) / RFU LOC100653217 /// NTM (11731650_a_at) / Fold change /veh LOC100653217 /// NTM (11731650_a_at) / RFU MAPK11 (11762145_a_at) / Fold change /veh MAPK11 (11762145_a_at) / RFU FIZ1 (11724087_x_at) / Fold change /veh FIZ1 (11724087_x_at) / RFU OASL (11726364_x_at) / Fold change /veh OASL (11726364_x_at) / RFU SOX15 (11748057_x_at) / Fold change /veh SOX15 (11748057_x_at) / RFU CD79A (11719716_a_at) / Fold change /veh CD79A (11719716_a_at) / RFU HIST1H1D (11736915_at) / Fold change /veh HIST1H1D (11736915_at) / RFU CASKIN2 (11723855_a_at) / Fold change /veh CASKIN2 (11723855_a_at) / RFU LOC730098 (11760151_x_at) / Fold change /veh LOC730098 (11760151_x_at) / RFU OR4N2 (11742367_at) / Fold change /veh OR4N2 (11742367_at) / RFU PRRT2 (11749266_a_at) / Fold change /veh PRRT2 (11749266_a_at) / RFU SNX32 (11753110_a_at) / Fold change /veh SNX32 (11753110_a_at) / RFU CDHR5 (11726645_a_at) / Fold change /veh CDHR5 (11726645_a_at) / RFU RCAN1 (11760418_a_at) / Fold change /veh RCAN1 (11760418_a_at) / RFU FAM167A (11723789_a_at) / Fold change /veh FAM167A (11723789_a_at) / RFU FAM26E (11764081_at) / Fold change /veh FAM26E (11764081_at) / RFU ISYNA1 (11749810_s_at) / Fold change /veh ISYNA1 (11749810_s_at) / RFU ACY1 (11761880_at) / Fold change /veh ACY1 (11761880_at) / RFU 11764098_at / Fold change /veh 11764098_at / RFU SAMD14 (11745864_x_at) / Fold change /veh SAMD14 (11745864_x_at) / RFU NPB (11741838_a_at) / Fold change /veh NPB (11741838_a_at) / RFU TMPRSS6 (11731388_a_at) / Fold change /veh TMPRSS6 (11731388_a_at) / RFU KRTAP10-2 (11738614_at) / Fold change /veh KRTAP10-2 (11738614_at) / RFU ARHGAP8 /// PRR5-ARHGAP8 (11727945_x_at) / Fold change /veh ARHGAP8 /// PRR5-ARHGAP8 (11727945_x_at) / RFU KRTAP5-7 /// NADSYN1 (11734609_at) / Fold change /veh KRTAP5-7 /// NADSYN1 (11734609_at) / RFU RASL12 (11751679_a_at) / Fold change /veh RASL12 (11751679_a_at) / RFU CDKN2B (11736163_a_at) / Fold change /veh CDKN2B (11736163_a_at) / RFU PRF1 (11729649_at) / Fold change /veh PRF1 (11729649_at) / RFU, ZNF638 /// ZNF638-IT1 / Fold change vs veh, ZNF638 /// ZNF638-IT1 / RFU, PANK3 / Fold change vs veh, PANK3 / RFU, SH3YL1 / Fold change vs veh, SH3YL1 / RFU, ZEB2 / Fold change vs veh, ZEB2 / RFU, NRIP1 / Fold change vs veh, NRIP1 / RFU, PTTG1IP / Fold change vs veh, PTTG1IP / RFU, CAPN2 / Fold change vs veh, CAPN2 / RFU, MED14 / Fold change vs veh, MED14 / RFU, SNORA58 / Fold change vs veh, SNORA58 / RFU, C1orf63 / Fold change vs veh, C1orf63 / RFU, LRRFIP1 / Fold change vs veh, LRRFIP1 / RFU, NDUFAF7 / Fold change vs veh, NDUFAF7 / RFU, SLC12A2 / Fold change vs veh, SLC12A2 / RFU, IBTK / Fold change vs veh, IBTK / RFU, ESF1 / Fold change vs veh, ESF1 / Fold change vs veh, TMEM50B / RFU, TAOK1 / Fold change vs veh, TAOK1 / RFU, ACBD3 / Fold change vs veh, ACBD3 / RFU, TMA16 / Fold change vs veh, TMA16 / RFU, RWDD3 / Fold change vs veh, RWDD3 / RFU, BCAT1 / Fold change vs veh, BCAT1 / RFU, EDEM3 / Fold change vs veh, EDEM3 / RFU, TMEM33 / Fold change vs veh, TMEM33 / RFU, WDR75 / Fold change vs veh, WDR75 / RFU, AHCTF1 / Fold change vs veh, AHCTF1 / RFU, TFRC / Fold change vs veh, TFRC / RFU, ZDHHC17 / Fold change vs veh, ZDHHC17 / RFU, NOM1 / Fold change vs veh, NOM1 / RFU, ARL8B / Fold change vs veh, ARL8B / RFU, ZBTB11 / Fold change vs veh, ZBTB11 / RFU, TAMM41 / Fold change vs veh, TAMM41 / RFU, KIAA1704 /// LOC100996395 / Fold change vs veh, KIAA1704 /// LOC100996395 / RFU, ING1 / Fold change vs veh, ING1 / RFU, TRMT61B / Fold change vs veh, TRMT61B / RFU, FUBP3 / Fold change vs veh, FUBP3 / RFU, TP53 / Fold change vs veh, TP53 / RFU, TNKS2 / Fold change vs veh, TNKS2 / RFU, ZFP14 / Fold change vs veh, ZFP14 / RFU, ACTR2 / Fold change vs veh, ACTR2 / RFU, PPP3R1 / Fold change vs veh, PPP3R1 / RFU, PIK3R1 / Fold change vs veh, PIK3R1 / RFU, HNRNPA1 / Fold change vs veh, HNRNPA1 / RFU, RNF170 / Fold change vs veh, RNF170 / RFU, ZNF28 / Fold change vs veh, ZNF28 / RFU, RNGTT / Fold change vs veh, RNGTT / RFU, OGT / Fold change vs veh, OGT / RFU, BRD1 / Fold change vs veh, BRD1 / RFU, MARS / Fold change vs veh, MARS / RFU, ZNF655 / Fold change vs veh, ZNF655 / RFU, FAHD1 / Fold change vs veh, FAHD1 / RFU, BDP1 / Fold change vs veh, BDP1 / RFU, LRRCC1 / Fold change vs veh, LRRCC1 / RFU, ARID1A / Fold change vs veh, ARID1A / RFU, ZNF146 / Fold change vs veh, ZNF146 / RFU, ZNF330 / Fold change vs veh, ZNF330 / RFU, GPN3 / Fold change vs veh, GPN3 / RFU, C9orf123 / Fold change vs veh, C9orf123 / RFU, N4BP2L2 / Fold change vs veh, N4BP2L2 / RFU, ARFIP1 / Fold change vs veh, ARFIP1 / RFU, FAM179B / Fold change vs veh, FAM179B / RFU, BCL10 / Fold change vs veh, BCL10 / RFU, UHRF1BP1L / Fold change vs veh, UHRF1BP1L / RFU, BET1 / Fold change vs veh, BET1 / RFU, CNOT2 / Fold change vs veh, CNOT2 / RFU, ZNF268 / Fold change vs veh, ZNF268 / Fold change vs veh, ZNF507 / RFU, DGCR2 / Fold change vs veh, DGCR2 / RFU, WDSUB1 / Fold change vs veh, WDSUB1 / Fold change vs veh, HSP90B1 /// MIR3652 / RFU, ADSS / Fold change vs veh, ADSS / RFU, GK / Fold change vs veh, GK / RFU, ZNF148 / Fold change vs veh, ZNF148 / RFU, TAF9 / Fold change vs veh, TAF9 / RFU, SLC1A5 / Fold change vs veh, SLC1A5 / RFU, SLMO2 / Fold change vs veh, SLMO2 / RFU, ABCC4 / Fold change vs veh, ABCC4 / RFU, LOC101060439 /// RAP1B / Fold change vs veh, LOC101060439 /// RAP1B / RFU, RFX7 / Fold change vs veh, RFX7 / RFU, GTPBP10 / Fold change vs veh, GTPBP10 / RFU, CNEP1R1 / Fold change vs veh, CNEP1R1 / RFU, BIVM-ERCC5 /// ERCC5 / Fold change vs veh, BIVM-ERCC5 /// ERCC5 / RFU, ILF3 / Fold change vs veh, ILF3 / RFU 11762660_at / Fold change /veh 11762660_at / RFU VCAN (11757783_s_at) / Fold change /veh VCAN (11757783_s_at) / RFU DDX43 (11728927_at) / Fold change /veh DDX43 (11728927_at) / RFU KRT8 (11758188_x_at) / Fold change /veh KRT8 (11758188_x_at) / RFU NKD1 (11759106_at) / Fold change /veh NKD1 (11759106_at) / RFU SRD5A1 (11742802_a_at) / Fold change /veh SRD5A1 (11742802_a_at) / RFU TPSAB1 /// TPSB2 (11721975_s_at) / Fold change /veh TPSAB1 /// TPSB2 (11721975_s_at) / RFU GSTM3 (11746129_a_at) / Fold change /veh GSTM3 (11746129_a_at) / RFU IL23R (11737362_x_at) / Fold change /veh IL23R (11737362_x_at) / RFU TMEM51 (11727254_a_at) / Fold change /veh TMEM51 (11727254_a_at) / RFU PIWIL2 (11732686_x_at) / Fold change /veh PIWIL2 (11732686_x_at) / RFU ORM1 (11744905_x_at) / Fold change /veh ORM1 (11744905_x_at) / RFU CCDC152 (11743942_at) / Fold change /veh CCDC152 (11743942_at) / RFU ECM1 (11717891_a_at) / Fold change /veh ECM1 (11717891_a_at) / RFU IL23R (11748794_a_at) / Fold change /veh IL23R (11748794_a_at) / RFU TNFAIP8L3 (11732012_x_at) / Fold change /veh TNFAIP8L3 (11732012_x_at) / RFU MBOAT4 (11741988_at) / Fold change /veh MBOAT4 (11741988_at) / RFU 11764193_at / Fold change /veh 11764193_at / RFU TMEM53 (11763286_at) / Fold change /veh TMEM53 (11763286_at) / RFU MAGEB2 (11727129_at) / Fold change /veh MAGEB2 (11727129_at) / RFU TMEM200A (11744735_a_at) / Fold change /veh TMEM200A (11744735_a_at) / RFU CCDC152 (11751479_a_at) / Fold change /veh CCDC152 (11751479_a_at) / RFU FAM211A (11726209_a_at) / Fold change /veh FAM211A (11726209_a_at) / RFU RGS16 (11746705_a_at) / Fold change /veh RGS16 (11746705_a_at) / RFU VCAN (11755009_s_at) / Fold change /veh VCAN (11755009_s_at) / RFU RHOB (11743442_s_at) / Fold change /veh RHOB (11743442_s_at) / RFU RGS16 (11720943_a_at) / Fold change /veh RGS16 (11720943_a_at) / RFU RGS16 (11720944_at) / Fold change /veh RGS16 (11720944_at) / RFU, VPS4B / Fold change vs veh, VPS4B / RFU, CREB1 / Fold change vs veh, CREB1 / RFU, DNAJC13 / Fold change vs veh, DNAJC13 / RFU, GNAQ / Fold change vs veh, GNAQ / RFU, CDK5R1 / Fold change vs veh, CDK5R1 / RFU, ZRANB3 / Fold change vs veh, ZRANB3 / RFU, CUL4A / Fold change vs veh, CUL4A / RFU, CCNY / Fold change vs veh, CCNY / RFU, UFL1 / Fold change vs veh, UFL1 / RFU, COG3 / Fold change vs veh, COG3 / RFU, DIAPH2 / Fold change vs veh, DIAPH2 / RFU, SKA2 / Fold change vs veh, SKA2 / RFU, AFF3 / Fold change vs veh, AFF3 / RFU, LMF1 / Fold change vs veh, LMF1 / RFU, IPO11 / Fold change vs veh, IPO11 / RFU, DFFB / Fold change vs veh, DFFB / RFU, FOXP1 / Fold change vs veh, FOXP1 / RFU, CARD8 / Fold change vs veh, CARD8 / RFU, STRN3 / Fold change vs veh, STRN3 / RFU, ADK / Fold change vs veh, ADK / RFU, RASSF2 / Fold change vs veh, RASSF2 / RFU, WIPF1 / Fold change vs veh, WIPF1 / RFU, LARP1B / Fold change vs veh, LARP1B / RFU, RASA1 / Fold change vs veh, RASA1 / RFU, RB1 / Fold change vs veh, RB1 / RFU, PPFIA1 / Fold change vs veh, PPFIA1 / RFU, MAT2A / Fold change vs veh, MAT2A / RFU, CCT5 / Fold change vs veh, CCT5 / RFU, WDR92 / Fold change vs veh, WDR92 / RFU, CUX1 / Fold change vs veh, CUX1 / RFU, TTC7A / Fold change vs veh, TTC7A / RFU, TMEM135 / Fold change vs veh, TMEM135 / RFU, DEPTOR / Fold change vs veh, DEPTOR / RFU, CPM / Fold change vs veh, CPM / RFU, DNAJB6 / Fold change vs veh, DNAJB6 / RFU, CACNA2D3 / Fold change vs veh, CACNA2D3 / RFU, DTX4 / Fold change vs veh, DTX4 / RFU, TFCP2 / Fold change vs veh, TFCP2 / RFU, GMCL1 /// GMCL1P1 / Fold change vs veh, GMCL1 /// GMCL1P1 / RFU, AEBP2 / Fold change vs veh, AEBP2 / RFU, SNHG1 /// SNORD22 /// SNORD25 /// SNORD26 /// SNORD27 /// SNORD28 /// SNORD29 /// SNORD31 / Fold change vs veh, SNHG1 /// SNORD22 /// SNORD25 /// SNORD26 /// SNORD27 /// SNORD28 /// SNORD29 /// SNORD31 / Fold change (Aza/veh), C12orf56 (ProbeSet 11735607_a_at) / Fold change (ACY-1035/veh), C12orf56 (ProbeSet 11735607_a_at) / Fold change (Aza/veh), FGFR1OP (ProbeSet 11751329_s_at) / Fold change (ACY-1035/veh), FGFR1OP (ProbeSet 11751329_s_at) / Fold change (Aza/veh), VPS36 (ProbeSet 11739960_a_at) / Fold change (ACY-1035/veh), VPS36 (ProbeSet 11739960_a_at) / RFU SYPL1 (11715823_x_at) / Fold change /veh SYPL1 (11715823_x_at) / RFU IGFBP7 (11715501_s_at) / Fold change /veh IGFBP7 (11715501_s_at) / RFU REEP3 (11722064_at) / Fold change /veh REEP3 (11722064_at) / RFU IGLL1 (11728026_x_at) / Fold change /veh IGLL1 (11728026_x_at): dose or concentration left out as unconfirmed
Settings: MV-4-11 cells, 48 hours

## Nc1ncn([C@@H]2O[C@H](CO)[C@@H](O)[C@H]2O)c(=O)n1 [azacitidine]
  Fold change /veh CAPN14 (11732068_a_at): 1.07

From PMC5218480 (PLoS ONE, 2017)
